Source: US7893288B2, “Poly-halogenated triazapentadiene compositions” (Board of Regents, The University of Texas System, priority 2007, dated 2011)
Values joined by “and” are separate entries in the source; they are usually repeats but may differ in a detail not shown here. Identical values can stand only once.

Experiments:
Assay type in all cases: cell-based
Bacillus subtilis W168 [1] = assay: Minimum inhibitory concentration in LB broth, B. subtilis; settings: for Relative to AgNO3: efficacy per mole from MIC values
[2] = system: Gram positive and Gram negative bacteria; assay: Antimicrobial activity, summary of TABLES 16-18
Method: The new class of fluorinated triazapentadiene compounds with and without metal complexation as described herein were analyzed for antibacterial activity against several bacterial strains (both Gram positive and Gram negative). Methods for antimicrobial analysis included a modified Kirby-Bauer method and a determination of their minimum inhibitory concentrations. In brief, the modified Kirby-Bauer method relied on placement of a filter disk impregnated with a desired compound on a solid growth medium. Bacteria were grown to a confluent lawn and the extent of growth inhibition was measured (e.g., as an extent/percentage of a clear zone on the disk and/or solid medium).
For MIC assessment, compounds were initially dissolved in DMSO and serial dilutions of soluble compounds were made in LB broth.

[3] = system: Staphylococcus aureus (ATCC 25923); assay: Disk sensitivity test (modified Kirby-Bauer), S. aureus;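 note: Compound-loaded filter disks on LB agar plates seeded with a confluent bacterial lawn, compound dissolved in DMSO, plates kept overnight at 37 °C, then inhibition zone around disk measured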
Method: (§1) Filter disks were provided as sterile filter paper (about 6 mm in diameter) and spotted with 20 μL of a selected compound. Each compound was initially dissolved in dimethylsulfoxide (DMSO); any subsequent dilutions were also made in DMSO. Each filter was placed on an LB agar plate spread with 100 μL of a bacterial culture that had been grown overnight in suitable LB broth. Plates were incubated overnight at 37° C., after which, the extent of growth inhibition around each filter disk was measured. Bacterial strains included Staphylococcus aureus (ATCC 25923), Pseudomonas aeruginosa PAO1, Bacillus subtilis W168 and Escherichia coli HB101. […] The latter two strains are non-pathogenic Gram-positive and Gram-negative bacterial strains, respectively.

[4] = system: Staphylococcus aureus (ATCC 25923); assay: Minimum inhibitory concentration in LB broth, S. aureus; settings: for Relative to AgNO3: efficacy per mole from MIC values
Escherichia coli HB101 [5] = assay: Disk sensitivity test (modified Kirby-Bauer), E. coli;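 note: filter disk loaded with compound in DMSO laid on an LB agar bacterial lawn, kept overnight at 37 °C, then the inhibition zone around the disk is measured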
Method: as §1

Escherichia coli HB101 [6] = assay: Minimum inhibitory concentration in LB broth, E. coli; settings: for Relative to AgNO3: efficacy per mole from MIC values;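 for all read-outs here: broth dilution MIC, test compounds first taken up in DMSO, then serially diluted in LB medium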
[7] = system: Pseudomonas aeruginosa PAO1; assay: Disk sensitivity test (modified Kirby-Bauer), P. aeruginosa;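 note: Compound-loaded filter disks on LB agar lawns, DMSO as solvent, zone of inhibition around each disk read after overnight incubation at 37 °C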
Method: as §1

Bacillus subtilis W168 [8] = assay: Disk sensitivity test (modified Kirby-Bauer), B. subtilis;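 note: Compound-loaded filter disks on LB agar plates seeded with a bacterial lawn, plates held overnight at 37 °C, then the clear zone around each disk measured, compounds in DMSO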
Method: as §1

[9] = system: Pseudomonas aeruginosa PAO1; assay: Minimum inhibitory concentration in LB broth, P. aeruginosa; settings: for Relative to AgNO3: efficacy per mole from MIC values

SMILES	MIC (Bacillus subtilis W168 [1])	Relative to AgNO3 (Bacillus subtilis W168 [1])	antimicrobial activity (in words) [2]	Diameter of the zone of growth inhibition ([3]; 5.7 × 10^0 mM)	Diameter of the zone of growth inhibition ([3]; 5.7 × 10^1 mM)	Diameter of the zone of growth inhibition ([3]; 5.7 × 10^−1 mM)	Diameter of the zone of growth inhibition ([3]; 5.7 × 10^−2 mM)	Diameter of the zone of growth inhibition ([3]; 5.7 × 10^−3 mM)	Diameter of the zone of growth inhibition ([3]; 5.7 × 10^−4 mM)	Diameter of the zone of growth inhibition ([3]; 5.7 × 10^−5 mM)	MIC [4]	Relative to AgNO3 [4]	Diameter of the zone of growth inhibition (Escherichia coli HB101 [5]; 5.7 × 10^0 mM)	Diameter of the zone of growth inhibition (Escherichia coli HB101 [5]; 5.7 × 10^1 mM)	Diameter of the zone of growth inhibition (Escherichia coli HB101 [5]; 5.7 × 10^−1 mM)	Diameter of the zone of growth inhibition (Escherichia coli HB101 [5]; 5.7 × 10^−2 mM)	Diameter of the zone of growth inhibition (Escherichia coli HB101 [5]; 5.7 × 10^−3 mM)	MIC (Escherichia coli HB101 [6])	Relative to AgNO3 (Escherichia coli HB101 [6])	Diameter of the zone of growth inhibition ([7]; 5.7 × 10^0 mM)	also measured
FC(F)(F)C(F)(F)C(F)(F)C(=Nc1c(Cl)cccc1Cl)N=C(Nc1c(Cl)cccc1Cl)C(F)(F)C(F)(F)C(F)(F)F [[N{(C3F7)C(2,6-Cl2C6H3)N}2]H]	4.27 × 10^−1 μg/ml and 4.59 × 10^−4 mM	320.26	Effective	20.0 mm	13.0 mm	16.0 mm	15.0 mm	7.0 mm	7.0 mm	8.0 mm	7.80 μg/ml and 2.12 × 10^−3 mM	6.57	8.0 mm	9.0 mm	8.0 mm	8.0 mm	6.0 (NZ) mm	>16671.80 μg/ml and >23.92 mM	<2.46 × 10^−3	8.0 mm	Diameter of the zone of growth inhibition ([3]; 5.7 × 10^−6 mM): 6.0 (NZ) mm; Diameter of the zone of growth inhibition ([3]; 5.7 × 10^−7 mM): 6.0 (NZ) mm; Diameter of the zone of growth inhibition ([7]; 5.7 × 10^1 mM): 9.0 mm; Diameter of the zone of growth inhibition ([7]; 5.7 × 10^−1 mM): 8.0 mm; Diameter of the zone of growth inhibition ([7]; 5.7 × 10^−2 mM): 8.0 mm; Diameter of the zone of growth inhibition ([7]; 5.7 × 10^−3 mM): 7.0 mm; Diameter of the zone of growth inhibition (Bacillus subtilis W168 [8]; 5.7 × 10^0 mM): 19.0 mm; Diameter of the zone of growth inhibition (Bacillus subtilis W168 [8]; 5.7 × 10^1 mM): 21.0 mm; Diameter of the zone of growth inhibition (Bacillus subtilis W168 [8]; 5.7 × 10^−1 mM): 18.5 mm; Diameter of the zone of growth inhibition (Bacillus subtilis W168 [8]; 5.7 × 10^−2 mM): 19.0 mm; Diameter of the zone of growth inhibition (Bacillus subtilis W168 [8]; 5.7 × 10^−3 mM): 13.0 mm; Diameter of the zone of growth inhibition (Bacillus subtilis W168 [8]; 5.7 × 10^−4 mM): 8.5 mm; Diameter of the zone of growth inhibition (Bacillus subtilis W168 [8]; 5.7 × 10^−5 mM): 7.0 mm; Diameter of the zone of growth inhibition (Bacillus subtilis W168 [8]; 5.7 × 10^−6 mM): 7.5 mm; Diameter of the zone of growth inhibition (Bacillus subtilis W168 [8]; 5.7 × 10^−7 mM): 6.0 (NZ) mm; MIC [9]: >16671.80 μg/ml and >23.92 mM; Relative to AgNO3 [9]: <7.69 × 10^−4
Fc1cccc(C(F)(F)F)c1N=C(N=C(Nc1c(F)cccc1C(F)(F)F)C(F)(F)C(F)(F)C(F)(F)F)C(F)(F)C(F)(F)C(F)(F)F [[N{(C3F7)C(2-F,6-(CF3)C6H3)N}2]H]	1.60 × 10^−1 μg/ml and 2.19 × 10^−4 mM	671.23	Effective	36.0 mm	47.5 mm	34.0 mm	9.0 mm	8.0 mm	6.0 (NZ) mm	6.0 (NZ) mm	1.55 μg/ml and 1.06 × 10^−3 mM	34.71	8.5 mm	9.0 mm	8.0 mm	7.0 mm	7.0 mm	2912.70 μg/ml and 3.98 mM	1.48 × 10^−2	8.5 mm	Diameter of the zone of growth inhibition (Escherichia coli HB101 [5]; 5.7 × 10^−4 mM): 7.0 mm; Diameter of the zone of growth inhibition (Escherichia coli HB101 [5]; 5.7 × 10^−5 mM): 7.0 mm; Diameter of the zone of growth inhibition ([7]; 5.7 × 10^1 mM): 9.0 mm; Diameter of the zone of growth inhibition ([7]; 5.7 × 10^−1 mM): 8.0 mm; Diameter of the zone of growth inhibition ([7]; 5.7 × 10^−2 mM): 8.0 mm; Diameter of the zone of growth inhibition ([7]; 5.7 × 10^−3 mM): 8.0 mm; Diameter of the zone of growth inhibition ([7]; 5.7 × 10^−4 mM): 7.0 mm; Diameter of the zone of growth inhibition ([7]; 5.7 × 10^−5 mM): 6.0 (NZ) mm; Diameter of the zone of growth inhibition (Bacillus subtilis W168 [8]; 5.7 × 10^0 mM): 85.0 mm; Diameter of the zone of growth inhibition (Bacillus subtilis W168 [8]; 5.7 × 10^1 mM): 100.0 mm; Diameter of the zone of growth inhibition (Bacillus subtilis W168 [8]; 5.7 × 10^−1 mM): 50.0 mm; Diameter of the zone of growth inhibition (Bacillus subtilis W168 [8]; 5.7 × 10^−2 mM): 30.0 mm; Diameter of the zone of growth inhibition (Bacillus subtilis W168 [8]; 5.7 × 10^−3 mM): 13.5 mm; Diameter of the zone of growth inhibition (Bacillus subtilis W168 [8]; 5.7 × 10^−4 mM): 7.0 mm; Diameter of the zone of growth inhibition (Bacillus subtilis W168 [8]; 5.7 × 10^−5 mM): 8.0 mm; Diameter of the zone of growth inhibition (Bacillus subtilis W168 [8]; 5.7 × 10^−6 mM): 8.0 mm; Diameter of the zone of growth inhibition (Bacillus subtilis W168 [8]; 5.7 × 10^−7 mM): 7.5 mm; MIC [9]: 2912.70 μg/ml and 3.98 mM; Relative to AgNO3 [9]: 4.62 × 10^−3
